# Measured values as given in PubChem BioAssay (NCI).
#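 The compound was tested at five concentrations on cells cultured in 96-well plates, with a 48-hour exposure period. At the GI50, growth is halved. At the TGI there is no net growth.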
# Experiments:
# Assay in all cases: NCI tumour cell line growth inhibition, 48 h
# MDA-MB-435 = system: MDA-MB-435
# MCF7 breast = system: MCF7 breast
# ACHN renal = system: ACHN renal
# LOX IMVI melanoma = system: LOX IMVI melanoma
# PC-3 prostate = system: PC-3 prostate
# SNB-19 CNS = system: SNB-19 CNS
# DU-145 prostate = system: DU-145 prostate
# BT-549 breast = system: BT-549 breast
# OVCAR-3 ovarian = system: OVCAR-3 ovarian
# MOLT-4 leukemia = system: MOLT-4 leukemia
# SN12C renal = system: SN12C renal
# RPMI-8226 leukemia = system: RPMI-8226 leukemia
# SK-MEL-28 melanoma = system: SK-MEL-28 melanoma
# OVCAR-4 ovarian = system: OVCAR-4 ovarian
# SNB-75 CNS = system: SNB-75 CNS
# NCI-H23 lung = system: NCI-H23 lung
# NCI/ADR-RES ovarian = system: NCI/ADR-RES ovarian
# M14 melanoma = system: M14 melanoma
# HCC-2998 colon = system: HCC-2998 colon
# SK-MEL-5 melanoma = system: SK-MEL-5 melanoma
# SW-620 colon = system: SW-620 colon
# CAKI-1 renal = system: CAKI-1 renal
# A498 renal = system: A498 renal
# OVCAR-8 ovarian = system: OVCAR-8 ovarian
# OVCAR-5 ovarian = system: OVCAR-5 ovarian
# HOP-92 NSCLC = system: HOP-92 NSCLC
# RXF 393 renal = system: RXF 393 renal
# SK-OV-3 ovarian = system: SK-OV-3 ovarian
# UACC-62 melanoma = system: UACC-62 melanoma
# SF-268 CNS = system: SF-268 CNS
# NCI-H226 lung = system: NCI-H226 lung
# T-47D breast = system: T-47D breast
# SF-295 CNS = system: SF-295 CNS
# UACC-257 melanoma = system: UACC-257 melanoma
# UO-31 renal = system: UO-31 renal
# COLO 205 colon = system: COLO 205 colon
# SR leukemia = system: SR leukemia
# CCRF-CEM leukemia = system: CCRF-CEM leukemia
# 786-0 renal = system: 786-0 renal
# HCT-116 colon = system: HCT-116 colon
# HL-60(TB) leukemia = system: HL-60(TB) leukemia
# IGROV1 ovarian = system: IGROV1 ovarian
# SF-539 CNS = system: SF-539 CNS
# HT29 colon = system: HT29 colon
# MDA-MB-231 breast = system: MDA-MB-231 breast
# NCI-H460 lung = system: NCI-H460 lung
# U251 CNS = system: U251 CNS
# K-562 leukemia = system: K-562 leukemia
# KM12 colon = system: KM12 colon
# NCI-H522 lung = system: NCI-H522 lung
# HCT-15 colon = system: HCT-15 colon
# MALME-3M melanoma = system: MALME-3M melanoma
# A549 NSCLC = system: A549 NSCLC
# HOP-62 NSCLC = system: HOP-62 NSCLC
# TK-10 renal = system: TK-10 renal
# HS 578T breast = system: HS 578T breast
smiles,measurement,setting,value
FC(F)(F)c1cccc(Nc2nc3ccccc3nc2Nc2cccc(C(F)(F)F)c2)c1,GI50,MDA-MB-435,1030 nM
same,TGI,MDA-MB-435,2880 nM
same,GI50,MCF7 breast,2040 nM
same,TGI,MCF7 breast,9630 nM
same,GI50,ACHN renal,415 nM
same,TGI,ACHN renal,2230 nM
same,GI50,LOX IMVI melanoma,1500 nM
same,TGI,LOX IMVI melanoma,3070 nM
same,GI50,PC-3 prostate,495 nM
same,TGI,PC-3 prostate,7610 nM
same,GI50,SNB-19 CNS,732 nM
same,TGI,SNB-19 CNS,15400 nM
same,GI50,DU-145 prostate,732 nM
same,TGI,DU-145 prostate,13000 nM
same,GI50,BT-549 breast,2710 nM
same,TGI,BT-549 breast,7600 nM
same,GI50,OVCAR-3 ovarian,444 nM
same,TGI,OVCAR-3 ovarian,4300 nM
same,GI50,MOLT-4 leukemia,1510 nM
same,TGI,MOLT-4 leukemia,4340 nM
same,GI50,SN12C renal,442 nM
same,TGI,SN12C renal,2850 nM
same,GI50,RPMI-8226 leukemia,797 nM
same,TGI,RPMI-8226 leukemia,3950 nM
same,GI50,SK-MEL-28 melanoma,1710 nM
same,TGI,SK-MEL-28 melanoma,4730 nM
same,GI50,OVCAR-4 ovarian,2930 nM
same,TGI,OVCAR-4 ovarian,14600 nM
same,GI50,SNB-75 CNS,1150 nM
same,TGI,SNB-75 CNS,6710 nM
same,GI50,NCI-H23 lung,1720 nM
same,TGI,NCI-H23 lung,6310 nM
same,GI50,NCI/ADR-RES ovarian,1980 nM
same,TGI,NCI/ADR-RES ovarian,11400 nM
same,GI50,M14 melanoma,972 nM
same,TGI,M14 melanoma,3150 nM
same,GI50,HCC-2998 colon,2930 nM
same,TGI,HCC-2998 colon,7450 nM
same,GI50,SK-MEL-5 melanoma,481 nM
same,TGI,SK-MEL-5 melanoma,1700 nM
same,GI50,SW-620 colon,1710 nM
same,TGI,SW-620 colon,4010 nM
same,GI50,CAKI-1 renal,1020 nM
same,TGI,CAKI-1 renal,8780 nM
same,GI50,A498 renal,663 nM
same,TGI,A498 renal,3990 nM
same,GI50,OVCAR-8 ovarian,745 nM
same,TGI,OVCAR-8 ovarian,5570 nM
same,GI50,OVCAR-5 ovarian,454 nM
same,TGI,OVCAR-5 ovarian,3390 nM
same,GI50,HOP-92 NSCLC,1360 nM
same,TGI,HOP-92 NSCLC,4670 nM
same,GI50,RXF 393 renal,882 nM
same,TGI,RXF 393 renal,2340 nM
same,GI50,SK-OV-3 ovarian,437 nM
same,TGI,SK-OV-3 ovarian,1580 nM
same,GI50,UACC-62 melanoma,1560 nM
same,TGI,UACC-62 melanoma,5470 nM
same,GI50,SF-268 CNS,1290 nM
same,TGI,SF-268 CNS,13000 nM
same,GI50,NCI-H226 lung,1210 nM
same,TGI,NCI-H226 lung,2980 nM
same,GI50,T-47D breast,1410 nM
same,TGI,T-47D breast,4730 nM
same,GI50,SF-295 CNS,1920 nM
same,TGI,SF-295 CNS,5410 nM
same,GI50,UACC-257 melanoma,2020 nM
same,TGI,UACC-257 melanoma,5540 nM
same,GI50,UO-31 renal,1980 nM
same,TGI,UO-31 renal,11000 nM
same,GI50,COLO 205 colon,682 nM
same,TGI,COLO 205 colon,2180 nM
same,GI50,SR leukemia,1110 nM
same,TGI,SR leukemia,3360 nM
same,GI50,CCRF-CEM leukemia,710 nM
same,TGI,CCRF-CEM leukemia,3840 nM
same,GI50,786-0 renal,1810 nM
same,TGI,786-0 renal,3910 nM
same,GI50,HCT-116 colon,361 nM
same,TGI,HCT-116 colon,1520 nM
same,GI50,HL-60(TB) leukemia,1860 nM
same,TGI,HL-60(TB) leukemia,4770 nM
same,GI50,IGROV1 ovarian,3200 nM
same,TGI,IGROV1 ovarian,16800 nM
same,GI50,SF-539 CNS,959 nM
same,TGI,SF-539 CNS,3120 nM
same,GI50,HT29 colon,391 nM
same,TGI,HT29 colon,2030 nM
same,GI50,MDA-MB-231 breast,993 nM
same,TGI,MDA-MB-231 breast,2730 nM
same,GI50,NCI-H460 lung,457 nM
same,TGI,NCI-H460 lung,10100 nM
same,GI50,U251 CNS,427 nM
same,TGI,U251 CNS,1910 nM
same,GI50,K-562 leukemia,1280 nM
same,TGI,K-562 leukemia,5610 nM
same,GI50,KM12 colon,1990 nM
same,TGI,KM12 colon,4950 nM
same,GI50,NCI-H522 lung,335 nM
same,TGI,NCI-H522 lung,1630 nM
same,GI50,HCT-15 colon,515 nM
same,TGI,HCT-15 colon,2050 nM
same,GI50,MALME-3M melanoma,2130 nM
same,TGI,MALME-3M melanoma,6330 nM
same,GI50,A549 NSCLC,368 nM
same,TGI,A549 NSCLC,2810 nM
same,GI50,HOP-62 NSCLC,762 nM
same,TGI,HOP-62 NSCLC,2170 nM
same,GI50,TK-10 renal,1470 nM
same,TGI,TK-10 renal,3800 nM
same,GI50,HS 578T breast,2670 nM
same,TGI,HS 578T breast,7880 nM
